The test has as its target T1, BRD4(1) (Homo sapiens, UniProt O60885).
T1 construct: made in house
The test is described as follows: Protein stability (thermal) shift assay, BRD4(1). In kind it is binding.

The structures appear in SMILES notation. Where two headings read alike, the source gives them in different places.

For the compound `COc1ccc(Br)cc1-c1nc(N)nc2[nH]cnc12` [Compound 7d, 2-Amino-6-(5-bromo-2-methoxyphenyl)-9H-purine], for the setting “thermal shift, 10 μM compound, 2 μM protein, read-out: ΔTm”, the ΔTm at 10 µM turned out to be 3.2 °C.
With `Nc1nc(-c2cc(Br)cc3c2OCC3)c2nc[nH]c2n1` [Compound 11, 2-Amino-6-(5-bromo-2,3-dihydrobenzo[b]furan-7-yl)-9H-purine], where the note is “compound 10 μM, protein 2 μM, average of triplicate, read-out: ΔTm Shift, BRD4(1)”, the ΔTm at 10 µM is 5.3 °C.

(Values after paper PMC4403932 (Journal of Medicinal Chemistry, 2015).)
